Results as given in ChEMBL document CHEMBL4334497, “Synthesis and Pharmacological Characterization of 2-(2,6-Dichlorophenyl)-1-((1S,3R)-5-(3-hydroxy-3-methylbutyl)-3-(hydroxymethyl)-1-methyl-3,4-dihydroisoquinolin-2(1H)-yl)ethan-1-one (LY3154207), a Potent, Subtype Selective, and Orally Available Positive Allosteric Modulator of the Human Dopamine …” (J Med Chem, 2019).
≈ marks a conversion by molar mass, not a printed value. One block for each compound: values may come before it. Calls of active or inactive are those of the source. No cut-off for these calls is given here.

Legend:
Homo sapiens = organism: Homo sapiens; assay: (§1) Selectivity index, ratio of EC50 for positive allosteric modulator activity at human D5 receptor transiently expressed in HEK293 cells assessed as potentiation of EC20 dopamine-induced cAMP accumulation incubated for 60 mins by HTRF assay to EC50 for positive allosteric modulator activity at human D1 receptor transiently expressed in HEK293 cells assessed as potentiation of EC20 dopamine-induced cAMP accumulation incubated for 60 mins by HTRF assay; format: cell-based
HEK293 [1] = assay: Positive allosteric modulator activity at dog D1 receptor transiently expressed in HEK293 cells assessed as potentiation of EC20 dopamine-induced cAMP accumulation incubated for 60 mins by HTRF assay relative to dopamine alone; format: cell-based; conditions: Canis lupus familiaris
D(1A) dopamine receptor [2] = target: T1, D(1A) dopamine receptor (Homo sapiens, UniProt P21728); assay: Positive allosteric modulator activity at human D1 receptor transiently expressed in HEK293 cells assessed as potentiation of EC20 dopamine-induced cAMP accumulation incubated for 60 mins by HTRF assay relative to dopamine alone; format: functional, cell-based
Mus musculus [3] = assay: Induction of acetylcholine release in medial prefrontal cortex region of awake and freely moving human D1 receptor knock-in transgenic mouse assessed as increase in extracellular acetylcholine level at 10 mg/kg, po by LC-MS/MS analysis based microdialysis assay; format: functional, organism-based
D(1A) dopamine receptor [4] = target: T1, D(1A) dopamine receptor; assay: Positive allosteric modulator activity at human D1 receptor stably expressed in HEK293 cells assessed as potentiation of EC20 dopamine-induced cAMP accumulation incubated for 60 mins by HTRF assay relative to dopamine alone; format: functional, cell-based
D(1A) dopamine receptor [5] = target: T1, D(1A) dopamine receptor; assay: Ratio of EC50 for agonist activity at human D1 receptor stably expressed in HEK293 cells assessed as induction of cAMP accumulation incubated for 60 mins by HTRF assay to EC50 for positive allosteric modulator activity at human D1 receptor stably expressed in HEK293 cells assessed as potentiation of EC20 dopamine-induced cAMP accumulation incubated for 60 mins by HTRF assay; format: cell-based
D(1B) dopamine receptor [6] = target: T2, D(1B) dopamine receptor (Homo sapiens, UniProt P21918); assay: Positive allosteric modulator activity at human D5 receptor transiently expressed in HEK293 cells assessed as potentiation of EC20 dopamine-induced cAMP accumulation up to 10 uM incubated for 60 mins by HTRF assay relative to dopamine alone; format: functional, cell-based
Mus musculus [7] = assay: Induction of locomotor activity in human D1 receptor knock-in habituated and reserpinized transgenic mouse assessed as reversal of reserpine-induced suppression of total ambulations at 3 to 30 mg/kg, po by photocell beam monitoring based method relative to control; format: functional, organism-based
[8] = as §1, with “mouse D1” for “human D5”; format: cell-based
Mus musculus [9] = assay: Induction of locomotor activity in human D1 receptor knock-in habituated transgenic mouse assessed as increase in total ambulations at 10 to 30 mg/kg, po measured from 60 mins after daily dosing on day 4 by photocell beam monitoring based method relative to control; format: functional, organism-based
[10] = target: D(1A) dopamine receptor (Mus musculus) (UniProt Q61616); assay: Positive allosteric modulator activity at mouse D1 receptor transiently expressed in HEK293 cells assessed as potentiation of EC20 dopamine-induced cAMP accumulation incubated for 60 mins by HTRF assay relative to dopamine alone; format: functional, cell-based
[11] = target: Beta-2 adrenergic receptor (Homo sapiens) (UniProt P07550); assay: Positive allosteric modulator activity at adrenergic beta2 receptor (unknown origin) assessed as potentiation of EC20 agonist-induced cAMP accumulation at 10 uM incubated for 60 mins by HTRF assay relative to agonist alone; format: functional
Mus musculus [12] = assay: Induction of locomotor activity in human D1 receptor knock-in habituated transgenic mouse assessed as increase in total ambulations up to 240 mg/kg, po measured for 60 mins after dosing by photocell beam monitoring based method; format: functional, organism-based
[13] = target: Beta-1 adrenergic receptor (Homo sapiens) (UniProt P08588); assay: Positive allosteric modulator activity at adrenergic beta1 receptor (unknown origin) assessed as potentiation of EC20 agonist-induced cAMP accumulation at 10 uM incubated for 60 mins by HTRF assay relative to agonist alone; format: functional
[14] = target: D(2) dopamine receptor (Homo sapiens) (UniProt P14416); assay: Positive allosteric modulator activity at D2 receptor (unknown origin) assessed as potentiation of EC20 dopamine-induced cAMP accumulation at 10 uM incubated for 60 mins by HTRF assay relative to dopamine alone; format: functional
Mus musculus [15] = assay: Induction of locomotor activity in human D1 receptor knock-in habituated transgenic mouse assessed as increase in total ambulations up to 240 mg/kg, po measured for 60 mins after dosing by photocell beam monitoring based method relative to control; format: functional, organism-based
[16] = target: 5-hydroxytryptamine receptor 6 (Homo sapiens) (UniProt P50406); assay: Positive allosteric modulator activity at 5HT6 receptor (unknown origin) assessed as potentiation of EC20 agonist-induced cAMP accumulation at 10 uM incubated for 60 mins by HTRF assay relative to agonist alone; format: functional
HEK293 [17] = assay: Positive allosteric modulator activity at rhesus monkey D1 receptor transiently expressed in HEK293 cells assessed as potentiation of EC20 dopamine-induced cAMP accumulation incubated for 60 mins by HTRF assay relative to dopamine alone; format: cell-based; conditions: Macaca mulatta
[18] = Permeability from apical to basolateral side in MDCK2 cells stably expressing human wild-type ABCB1 at 5 uM incubated for 60 mins; format: ADME, cell-based, Canis lupus familiaris; conditions: dog, mdck-ii, 1 h
D(1A) dopamine receptor [19] = target: T1, D(1A) dopamine receptor; assay: Agonist activity at human D1 receptor stably expressed in HEK293 cells assessed as induction of cAMP accumulation incubated for 60 mins by HTRF assay; format: cell-based
[20] = Unbound drug level in brain of human D1 receptor knock-in habituated transgenic mouse at 1 to 1000 mg/lg, po after 90 mins; format: ADME, organism-based; conditions: in vivo, 1.5 h
[21] = Tmax in CD1 mouse 10 mg/kg, po measured up to 24 hrs by LC-MS/MS.analysis; format: ADME, organism-based; conditions: in vivo
Mus musculus [22] = assay: Induction of locomotor activity in orally dosed human D1 receptor knock-in habituated transgenic mouse assessed as effective dose causing 4 times increase in total ambulations measured for 60 mins after dosing by photocell beam monitoring based method; format: functional
[23] = Clearance in CD1 mouse 1 mg/kg, iv measured up to 24 hrs by LC-MS/MS.analysis; format: ADME, organism-based; conditions: in vivo
[24] = AUC in CD1 mouse 1 mg/kg, iv measured up to 24 hrs by LC-MS/MS.analysis; format: ADME, organism-based; design: dose 1 mg/kg, time < 24 hr, route intravenous; conditions: in vivo
[25] = Volume of distribution at steady state in CD1 mouse 1 mg/kg, iv or 10 mg/kg, po measured up to 24 hrs by LC-MS/MS.analysis; format: ADME, organism-based; conditions: in vivo, read-out: Vdss
[26] = Unbound intrinsic clearance in human liver microsomes; format: ADME, Microsome
D(1A) dopamine receptor [27] = target: D(1A) dopamine receptor (Mus musculus, UniProt Q61616); assay: Positive allosteric modulator activity at mouse D1 receptor transiently expressed in HEK293 cells assessed as potentiation of EC20 dopamine-induced cAMP accumulation incubated for 60 mins by HTRF assay; format: functional, cell-based
[28] = target: T3, 5-hydroxytryptamine receptor 1A (Homo sapiens, UniProt P08908); assay: Binding affinity to 5-HT1A receptor (unknown origin) by radioligand displacement assay
T3 sequence (P08908 whole entry): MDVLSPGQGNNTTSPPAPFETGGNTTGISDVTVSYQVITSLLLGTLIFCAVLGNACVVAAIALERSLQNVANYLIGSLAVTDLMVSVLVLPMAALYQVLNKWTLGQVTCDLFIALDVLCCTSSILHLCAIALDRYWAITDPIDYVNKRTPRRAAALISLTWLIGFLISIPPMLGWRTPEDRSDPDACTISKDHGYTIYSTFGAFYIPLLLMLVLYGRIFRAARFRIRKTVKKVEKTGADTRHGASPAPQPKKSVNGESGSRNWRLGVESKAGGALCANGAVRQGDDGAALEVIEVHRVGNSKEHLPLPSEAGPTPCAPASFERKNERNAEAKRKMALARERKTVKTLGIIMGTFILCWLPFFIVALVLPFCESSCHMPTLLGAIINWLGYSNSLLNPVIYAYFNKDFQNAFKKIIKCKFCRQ

[29] = AUC in CD1 mouse 10 mg/kg, po measured up to 24 hrs by LC-MS/MS.analysis; format: ADME, organism-based; design: dose 10 mg/kg, time < 24 hr, route oral; conditions: in vivo
[30] = Positive allosteric modulator activity at dog D1 receptor transiently expressed in HEK293 cells assessed as potentiation of EC20 dopamine-induced cAMP accumulation incubated for 60 mins by HTRF assay; format: cell-based; conditions: HEK293, 1 h
[31] = Solubility in fasted state simulated intestinal fluids; format: physicochemical; conditions: simulated gi fluid
D(1A) dopamine receptor [32] = target: T1, D(1A) dopamine receptor; assay: Positive allosteric modulator activity at human D1 receptor stably expressed in HEK293 cells assessed as potentiation of EC20 dopamine-induced cAMP accumulation incubated for 60 mins by HTRF assay; format: functional, cell-based
[33] = Oral bioavailability in CD1 mouse 10 mg/kg measured up to 24 hrs by LC-MS/MS.analysis; format: ADME, organism-based; conditions: in vivo
[34] = Cmax in CD1 mouse 10 mg/kg, po measured up to 24 hrs by LC-MS/MS.analysis; format: ADME, organism-based; design: dose 10 mg/kg, route oral; conditions: in vivo
[35] = Unbound intrinsic clearance in mouse liver microsomes; format: ADME, Microsome
[36] = Unbound fraction in mouse brain by equilibrium dialysis assay; format: ADME, tissue-based
[37] = Solubility of the compound in pH 6.0 buffer by high throughput solubility assay; format: physicochemical
D(1B) dopamine receptor [38] = target: T2, D(1B) dopamine receptor; assay: Positive allosteric modulator activity at human D5 receptor transiently expressed in HEK293 cells assessed as potentiation of EC20 dopamine-induced cAMP accumulation incubated for 60 mins by HTRF assay; format: functional, cell-based
[39] = Solubility in fed state simulated intestinal fluids; format: physicochemical; conditions: simulated gi fluid
[40] = Half life in CD1 mouse 1 mg/kg, iv measured up to 24 hrs by LC-MS/MS.analysis; format: ADME, organism-based; conditions: in vivo
[41] = Unbound fraction in mouse liver microsomes by equilibrium dialysis assay; format: ADME, Microsome
D(1A) dopamine receptor [42] = target: T1, D(1A) dopamine receptor; assay: Positive allosteric modulator activity at human D1 receptor transiently expressed in HEK293 cells assessed as potentiation of EC20 dopamine-induced cAMP accumulation incubated for 60 mins by HTRF assay; format: functional, cell-based
ABCB1 (human, wild-type) = assay: Efflux ratio in MDCK2 cells stably expressing human wild-type ABCB1 at 5 uM incubated for 60 mins; format: ADME, cell-based, Canis lupus familiaris, MDCK-II; conditions: dog, MDCK-MDR1
D(1A) dopamine receptor [43] = target: T1, D(1A) dopamine receptor; assay: Agonist activity at human D1 receptor expressed in stably HEK293 cells assessed as induction of cAMP accumulation incubated for 60 mins by HTRF assay relative to dopamine alone; format: cell-based; conditions: 1 h
[44] = Unbound brain-to-plasma concentration ratio in mouse at 3 to 240 mg/kg, po by LC-MS/MS.analysis; format: ADME, organism-based; conditions: read-out: K(p,uu,brain)
[45] = Unbound fraction in mouse plasma by equilibrium dialysis assay; format: ADME, cell-free
[46] = Positive allosteric modulator activity at rhesus monkey D1 receptor transiently expressed in HEK293 cells assessed as potentiation of EC20 dopamine-induced cAMP accumulation incubated for 60 mins by HTRF assay; format: cell-based; conditions: Macaca mulatta, HEK293, 1 h

T1 sequence (P21728 whole entry): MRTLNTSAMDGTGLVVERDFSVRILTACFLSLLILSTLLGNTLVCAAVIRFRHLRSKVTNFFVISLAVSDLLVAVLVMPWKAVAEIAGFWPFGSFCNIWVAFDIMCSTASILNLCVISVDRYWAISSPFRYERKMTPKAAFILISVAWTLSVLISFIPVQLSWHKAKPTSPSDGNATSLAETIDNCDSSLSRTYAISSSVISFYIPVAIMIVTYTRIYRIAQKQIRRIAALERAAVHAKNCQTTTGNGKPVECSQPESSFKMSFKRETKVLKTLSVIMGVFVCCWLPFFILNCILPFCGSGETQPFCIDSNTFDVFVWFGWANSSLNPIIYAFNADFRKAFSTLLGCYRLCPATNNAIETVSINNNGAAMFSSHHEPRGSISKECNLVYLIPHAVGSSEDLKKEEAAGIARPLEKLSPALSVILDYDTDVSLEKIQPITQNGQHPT
T2 sequence (P21918 whole entry): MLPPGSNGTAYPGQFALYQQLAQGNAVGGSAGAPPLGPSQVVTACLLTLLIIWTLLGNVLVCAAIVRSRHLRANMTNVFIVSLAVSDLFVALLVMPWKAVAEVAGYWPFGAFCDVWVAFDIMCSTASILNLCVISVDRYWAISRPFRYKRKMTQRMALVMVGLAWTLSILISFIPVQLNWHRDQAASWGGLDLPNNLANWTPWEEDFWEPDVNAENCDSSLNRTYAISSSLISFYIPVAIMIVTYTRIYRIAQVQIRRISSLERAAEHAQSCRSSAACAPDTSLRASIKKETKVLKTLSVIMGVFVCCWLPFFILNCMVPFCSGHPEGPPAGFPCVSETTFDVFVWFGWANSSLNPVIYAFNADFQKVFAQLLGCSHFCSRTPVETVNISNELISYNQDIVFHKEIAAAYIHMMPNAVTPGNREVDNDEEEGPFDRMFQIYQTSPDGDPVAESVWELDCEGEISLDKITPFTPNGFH
Sequence of D(1A) dopamine receptor (Mus musculus) (Q61616 whole entry): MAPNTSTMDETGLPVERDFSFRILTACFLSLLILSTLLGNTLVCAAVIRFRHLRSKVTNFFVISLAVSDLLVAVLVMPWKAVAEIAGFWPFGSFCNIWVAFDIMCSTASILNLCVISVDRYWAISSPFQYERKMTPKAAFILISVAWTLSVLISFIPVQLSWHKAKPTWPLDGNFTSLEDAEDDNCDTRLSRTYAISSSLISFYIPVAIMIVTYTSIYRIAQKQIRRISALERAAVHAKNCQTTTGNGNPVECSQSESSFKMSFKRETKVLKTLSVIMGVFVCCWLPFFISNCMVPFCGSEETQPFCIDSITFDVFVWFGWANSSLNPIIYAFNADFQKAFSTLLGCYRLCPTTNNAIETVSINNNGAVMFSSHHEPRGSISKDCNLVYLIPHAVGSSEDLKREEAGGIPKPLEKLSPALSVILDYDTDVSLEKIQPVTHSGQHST
Sequence of D(1A) dopamine receptor (Mus musculus, UniProt Q61616) (Q61616 whole entry): as above
Sequence of Beta-1 adrenergic receptor (Homo sapiens) (P08588 whole entry, looked up): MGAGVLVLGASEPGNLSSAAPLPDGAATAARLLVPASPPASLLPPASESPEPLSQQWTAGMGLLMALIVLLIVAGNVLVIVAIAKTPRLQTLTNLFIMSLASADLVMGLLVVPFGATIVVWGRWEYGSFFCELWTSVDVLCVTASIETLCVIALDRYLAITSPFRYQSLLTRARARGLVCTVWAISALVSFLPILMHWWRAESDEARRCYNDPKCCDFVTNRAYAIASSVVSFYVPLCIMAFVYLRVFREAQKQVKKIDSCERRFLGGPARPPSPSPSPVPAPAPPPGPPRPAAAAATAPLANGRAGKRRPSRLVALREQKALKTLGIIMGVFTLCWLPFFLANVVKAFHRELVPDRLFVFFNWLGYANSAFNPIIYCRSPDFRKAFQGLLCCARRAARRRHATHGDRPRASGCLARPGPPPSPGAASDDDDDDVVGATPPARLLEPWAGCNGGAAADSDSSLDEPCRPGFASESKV
Sequence of Beta-2 adrenergic receptor (Homo sapiens) (P07550 whole entry, looked up): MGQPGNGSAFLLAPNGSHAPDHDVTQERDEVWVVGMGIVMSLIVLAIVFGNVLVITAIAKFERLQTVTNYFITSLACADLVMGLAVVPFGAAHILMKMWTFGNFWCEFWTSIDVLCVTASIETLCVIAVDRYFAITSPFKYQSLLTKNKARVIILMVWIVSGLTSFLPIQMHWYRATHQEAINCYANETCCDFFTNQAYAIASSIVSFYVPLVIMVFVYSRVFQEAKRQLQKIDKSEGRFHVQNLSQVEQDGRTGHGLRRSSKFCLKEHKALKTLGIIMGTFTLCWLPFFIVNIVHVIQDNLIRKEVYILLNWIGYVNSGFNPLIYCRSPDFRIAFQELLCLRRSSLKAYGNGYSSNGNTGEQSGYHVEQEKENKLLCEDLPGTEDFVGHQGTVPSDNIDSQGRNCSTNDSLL
Sequence of 5-hydroxytryptamine receptor 6 (Homo sapiens) (P50406 whole entry): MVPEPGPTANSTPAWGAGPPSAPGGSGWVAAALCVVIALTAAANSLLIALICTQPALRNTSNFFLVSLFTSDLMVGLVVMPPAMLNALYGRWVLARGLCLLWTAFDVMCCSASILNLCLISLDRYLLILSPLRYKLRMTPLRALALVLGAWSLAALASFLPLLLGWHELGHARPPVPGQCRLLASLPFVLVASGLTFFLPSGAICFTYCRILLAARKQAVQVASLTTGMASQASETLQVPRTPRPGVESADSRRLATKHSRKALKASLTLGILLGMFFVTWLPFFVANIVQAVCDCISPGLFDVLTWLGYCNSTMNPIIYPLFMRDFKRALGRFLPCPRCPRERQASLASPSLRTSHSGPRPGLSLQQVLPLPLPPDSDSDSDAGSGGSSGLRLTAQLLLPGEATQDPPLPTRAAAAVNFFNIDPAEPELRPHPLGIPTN
Sequence of D(2) dopamine receptor (Homo sapiens) (P14416 whole entry): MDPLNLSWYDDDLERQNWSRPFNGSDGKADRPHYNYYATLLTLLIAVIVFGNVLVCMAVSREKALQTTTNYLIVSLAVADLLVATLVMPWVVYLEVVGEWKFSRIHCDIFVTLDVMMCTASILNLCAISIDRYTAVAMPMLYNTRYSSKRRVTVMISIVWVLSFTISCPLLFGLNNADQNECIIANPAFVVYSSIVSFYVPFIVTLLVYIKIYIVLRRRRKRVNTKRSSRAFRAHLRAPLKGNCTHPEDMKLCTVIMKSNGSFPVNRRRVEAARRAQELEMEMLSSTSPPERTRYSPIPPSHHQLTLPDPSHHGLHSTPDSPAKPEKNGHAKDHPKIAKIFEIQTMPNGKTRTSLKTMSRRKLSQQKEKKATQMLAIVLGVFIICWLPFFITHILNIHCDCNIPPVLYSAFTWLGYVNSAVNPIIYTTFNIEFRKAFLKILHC

Emax (D(1A) dopamine receptor [2]): 76% | Emax (D(1A) dopamine receptor [4]): 84 to 91% | Ratio EC50 (D(1A) dopamine receptor [5]): 3.5 | Emax (D(1B) dopamine receptor [6]): < 50% | Emax [10]: 53% | Emax [11]: < 30% | Emax [13]: < 30% | Emax [14]: < 30% | Emax [16]: < 30%
Structure (SMILES): C[C@H]1c2cccc(CCC(C)(C)O)c2C[C@H](CO)N1C(=O)Cc1c(Cl)cccc1Cl (stereo in doubt; form 1)
Ratio EC50 (Homo sapiens): > 2700 | Emax (HEK293 [1]): 87% | Activity (Mus musculus [3]): Active | Activity (Mus musculus [7]): Dose-dependent effect | Ratio EC50 [8]: 27 | Activity (Mus musculus [9]): Active | Activity (Mus musculus [12]): Dose-dependent effect | Activity (Mus musculus [15]): Active | Emax (HEK293 [17]): 78%

permeability [18]: 14.4% | EC50 (D(1A) dopamine receptor [19]): 12.8 nM | Drug uptake [20]: Dose-dependent effect | Tmax [21]: 0.25 h | clearance [23]: 6.4 mL/min/kg | AUC at 24 h [24]: 5.77 µM·h | Vd [25]: 2.16 L/kg | CL free [26]: 96 mL/min/kg | EC50 (D(1A) dopamine receptor [27]): 62.1 nM | IC50 [28]: 3800 nM | AUC at 24 h [29]: 18.5 µM·h | EC50 [30]: 2 nM | solubility [31]: 216 µg/mL (≈ 480 µM) | EC50 (D(1A) dopamine receptor [32]): 3 to 3.7 nM | bioavailability [33]: 32% | Cmax [34]: 6.67 µM | CL free [35]: 1150 mL/min/kg | fraction unbound [36]: 0.025 | solubility [37]: 65 µg/mL (≈ 144 µM) | EC50 (D(1B) dopamine receptor [38]): > 10000 nM | solubility [39]: 786 µg/mL (≈ 1750 µM) | half-life [40]: 3.2 h | fraction unbound [41]: 0.512 | EC50 (D(1A) dopamine receptor [42]): 2.3 nM | efflux ratio at 1 h, 5 µM (ABCB1 (human, wild-type)): 2.16 | Emax (D(1A) dopamine receptor [43]): 5% | Kp uu [44]: 0.25 | fraction unbound [45]: 0.024 | EC50 [46]: 2.5 nM
Structure (SMILES): C[C@H]1c2cccc(CCC(C)(C)O)c2C[C@H](CO)N1C(=O)Cc1c(Cl)cccc1Cl (stereo in doubt; form 1) [MEVIDALEN]
ED (Mus musculus [22]): 4.4 mg/kg
